Data from the NIST ThermoML archive (doi:10.1021/je900077g).

Experiment: excess molar enthalpy (molar enthalpy of mixing); xn = mol fraction of the nth substance listed
Settings: 308.15 K, 101 kPa, Liquid, Calvet calorimetry

C1COCCO1 [1,4-dioxane] + C1CCCCC1
Settings | excess molar enthalpy [kcal/mol]
x2 = 0.101 | 0.136
x2 = 0.204 | 0.251
x2 = 0.288 | 0.319
x2 = 0.408 | 0.374
x2 = 0.506 | 0.3872
x2 = 0.606 | 0.376
x2 = 0.705 | 0.343
x2 = 0.803 | 0.275
x2 = 0.9 | 0.166

C1CCOCC1 [tetrahydropyran] + C1CCCCC1
Settings | excess molar enthalpy [kcal/mol]
x2 = 0.101 | 0.0375
x2 = 0.2 | 0.0703
x2 = 0.3 | 0.0985
x2 = 0.4 | 0.117
x2 = 0.499 | 0.126
x2 = 0.606 | 0.124
x2 = 0.699 | 0.11
x2 = 0.8 | 0.0848
x2 = 0.9 | 0.0473

C1CCOCC1 [tetrahydropyran] + C1COCCO1
Settings | excess molar enthalpy [kcal/mol]
x1 = 0.104 | 0.0356
x1 = 0.201 | 0.0595
x1 = 0.299 | 0.0753
x1 = 0.398 | 0.0841
x1 = 0.497 | 0.0863
x1 = 0.612 | 0.0817
x1 = 0.716 | 0.0707
x1 = 0.8 | 0.0562
x1 = 0.9 | 0.0323
